Data published in patent US20240018133A1, “MODULATORS OF THE INTEGRATED STRESS PATHWAY” (Calico Life Sciences LLC, priority 2019, published 2024).

Tested on: ATF4 luciferase reporter (human full-length ATF4 5'-UTR fused to firefly luciferase) in HEK293T cells
Experiment: ATF4-Luc assay (in vitro model of VWMD): HEK293T cells carrying ATF4 luciferase reporter, tunicamycin-treated
Type: cell-based
Conditions: Homo sapiens, HEK-293T, 1 μg/mL tunicamycin, 7 hours, One Glo luminescence
Experimental: In order to test exemplary compounds of the invention in a cellular context, a stable VWMD cell line was first constructed. The ATF4 reporter was prepared by fusing the human full-length ATF4 5′-UTR (NCBI Accession No. BC022088.2) in front of the firefly luciferase (FLuc) coding sequence lacking the initiator methionine as described in Sidrauski et al (eLife 2013). The construct was used to produce recombinant retroviruses using standard methods and the resulting viral supernatant was used to transduce HEK293T cells, which were then subsequently selected with puromycin to generate a stable cell line.
HEK293T cells carrying the ATF4 luciferase reporter were plated on polylysine coated 384-well plates (Greiner Bio-one) at 30,000 cells per well. Cells were treated the next day with 1 μg/mL tunicamycin and 200 nM of a compound of Formula (I) for 7 hours. Luminescence was measured using One Glo (Promega) as specified by the manufacturer. Cells were maintained in DMEM with L-glutamine supplemented with 10% heat-inactivated FBS (Gibco) and Antibiotic-Antimycotic solution (Gibco).
Table 2 below summarizes the EC50 data obtained using the ATF4-Luc assay for exemplary compounds of the invention.

| SMILES | EC50 [nM] |
| --- | --- |
| COc1ccc2c(=O)cc(C(=O)NC34CC(NC(=O)COc5ccc(Cl)c(F)c5)(C3)C4)oc2c1 [Compound 283, N-{3-[2-(4-chloro-3-fluorophenoxy)acetamido]bicyclo[1.1.1]pentan-1-yl}-7-methoxy-4-oxo-4H-1-benzopyran-2-carboxamide] | 10 to 50 |
| C[C@@]1(O)C[C@H](C(=O)NC23CC(NC(=O)COc4ccc(Cl)c(F)c4)(C2)C3)Oc2ccc(Cl)cc21 (single isomer, unassigned) [Compound 280] | 10 to 50 |
| C[C@@]1(C(=O)NC23CC(NC(=O)COc4ccc(Cl)c(F)c4)(C2)C3)Oc2ccc(Cl)cc2C1O (stereo partly drawn) [Compound 263, (2R)-5-chloro-N-{3-[2-(4-chloro-3-fluorophenoxy)acetamido]bicyclo[1.1.1]pentan-1-yl}-3-hydroxy-2-methyl-2,3-dihydro-1-benzofuran-2-carboxamide] | > 2000 |
| Cc1cc2oc(C(=O)NC34CC(NC(=O)COc5ccc(Cl)c(F)c5)(C3)C4)cc(=O)c2cc1Cl [Compound 236, 6-chloro-N-{3-[2-(4-chloro-3-fluorophenoxy)acetamido]bicyclo[1.1.1]pentan-1-yl}-7-methyl-4-oxo-4H-1-benzopyran-2-carboxamide] | < 10 |
| Cc1ccc2c(c1)C(O)CC(C(=O)NC13CC(NC(=O)COc4ccc(Cl)c(F)c4)(C1)C3)O2 (stereo not drawn) [Compound 254, N-{3-[2-(4-chloro-3-fluorophenoxy)acetamido]bicyclo[1.1.1]pentan-1-yl}-4-hydroxy-6-methyl-3,4-dihydro-2H-1-benzopyran-2-carboxamide] | < 10 |
| O=C(COc1ccc(Cl)c(F)c1)NC12CC(NC(=O)C3CC(N[C@H]4C[C@@H](O)C4)c4cc(Cl)ccc4O3)(C1)C2 (mixture of isomers) [Compound 209, 6-chloro-N-{3-[2-(4-chloro-3-fluorophenoxy)acetamido]bicyclo[1.1.1]pentan-1-yl}-4-{[(1s,3s)-3-hydroxycyclobutyl]amino}-3,4-dihydro-2H-1-benzopyran-2-carboxamide] | 50 to 250 |
| O=C(COc1ccc(Cl)c(Cl)c1)NC12CC(NC(=O)[C@H]3CC(=O)c4cc(F)c(F)cc4O3)(C1)C2 [Compound 207E, (2R)—N-{3-[2-(3,4-dichlorophenoxy)acetamido]bicyclo[1.1.1]pentan-1-yl}-6,7-difluoro-4-oxo-3,4-dihydro-2H-1-benzopyran-2-carboxamide] | < 10 |
| O=C(COc1ccc(Cl)c(F)c1)NC12CC(NC(=O)[C@@H]3C=Cc4cc(Cl)ccc4O3)(C1)C2 [Compound 279, (2S)-6-chloro-N-{3-[2-(4-chloro-3-fluorophenoxy)acetamido]bicyclo[1.1.1]pentan-1-yl}-2H-1-benzopyran-2-carboxamide] | < 10 |
| CNC1CC(C(=O)NC23CCC(NC(=O)COc4ccc(Cl)c(F)c4)(CC2)[C@@H](O)C3)Oc2ccc(Cl)cc21 (stereo partly drawn) [Compound 303, 6-chloro-N-{(3S)-4-[2-(4-chloro-3-fluorophenoxy)acetamido]-3-hydroxybicyclo[2.2.2]octan-1-yl}-4-(methylamino)-3,4-dihydro-2H-1-benzopyran-2-carboxamide] | < 10 |
| CC(C)c1ccc2oc(C(=O)NC34CC(NC(=O)COc5ccc(Cl)c(F)c5)(C3)C4)cc(=O)c2c1 [Compound 290, N-{3-[2-(4-chloro-3-fluorophenoxy)acetamido]bicyclo[1.1.1]pentan-1-yl}-4-oxo-6-(propan-2-yl)-4H-1-benzopyran-2-carboxamide] | 10 to 50 |
| O=C(NC12CC(NC(=O)[C@H]3C[C@@H](O)c4cc(Cl)ccc4O3)(C1)C2)c1ccc(OC(F)(F)F)nc1 [Compound 377, N-(3-{[(2R,4R)-6-chloro-4-hydroxy-3,4-dihydro-2H-1-benzopyran-2-carbonyl]amino}bicyclo[1.1.1]pentan-1-yl)-6-(trifluoromethoxy)pyridine-3-carboxamide] | 50 to 250 |
| O=C(COc1ccc(Cl)c(F)c1)NC12CC(NC(=O)[C@H]3C[C@@H](O)c4cc(Cl)ccc4O3)(C1)C2 [Compound 196, (2R,4R)-6-chloro-N-{3-[2-(4-chloro-3-fluorophenoxy)acetamido]bicyclo[1.1.1]pentan-1-yl}-4-hydroxy-3,4-dihydro-2H-1-benzopyran-2-carboxamide] | < 10 |
| O=C(COc1ccc(Cl)c(F)c1)NC12CC(NC(=O)[C@H]3C[C@H](NCCO)c4cc(Cl)ccc4O3)(C1)C2 (racemic) [Compound 301, rac-(2R,4S)-6-chloro-N-{3-[2-(4-chloro-3-fluorophenoxy)acetamido]bicyclo[1.1.1]pentan-1-yl}-4-[(2-hydroxyethyl)amino]-3,4-dihydro-2H-1-benzopyran-2-carboxamide] | < 10 |
| O=C(COc1ccc(Cl)c(F)c1)NC12CC(NC(=O)C3CC(O)c4ccc(F)cc4O3)(C1)C2 (stereo not drawn) [Compound 222, N-{3-[2-(4-chloro-3-fluorophenoxy)acetamido]bicyclo[1.1.1]pentan-1-yl}-7-fluoro-4-hydroxy-3,4-dihydro-2H-1-benzopyran-2-carboxamide] | < 10 |
| O=C(NC12CC(NC(=O)[C@H]3C[C@@H](O)c4cc(Cl)ccc4O3)(C1)C2)c1cnc(C(F)F)cn1 (racemic) [Compound 218, N-(3-{[rac-(2R,4R)-6-chloro-4-hydroxy-3,4-dihydro-2H-1-benzopyran-2-carbonyl]amino}bicyclo[1.1.1]pentan-1-yl)-5-(difluoromethyl)pyrazine-2-carboxamide] | 10 to 50 |
| O=C(COc1ccc(Cl)c(F)c1)NC12CCC(NC(=O)[C@H]3C[C@@H](O)c4cc(Cl)ccc4O3)(CC1)[C@@H](O)C2 (single isomer, unassigned) [Compound 238] | < 10 |
| Cc1cc2oc(C(=O)NC34CC(NC(=O)COc5ccc(Cl)c(F)c5)(C3)C4)cc(=O)c2cc1C [Compound 285, N-{3-[2-(4-chloro-3-fluorophenoxy)acetamido]bicyclo[1.1.1]pentan-1-yl}-6,7-dimethyl-4-oxo-4H-1-benzopyran-2-carboxamide] | < 10 |
| O=C(COc1ccc(Cl)c(F)c1)NC12CC(NC(=O)C3Cc4cc(Cl)ccc4N3)(C1)C2 (stereo not drawn) [Compound 261, 5-chloro-N-{3-[2-(4-chloro-3-fluorophenoxy)acetamido]bicyclo[1.1.1]pentan-1-yl}-2,3-dihydro-1H-indole-2-carboxamide] | 50 to 250 |
| O=C(COc1ccc(Cl)c(F)c1)NC12CC(NC(=O)C3CC(O)c4cc(F)ccc4O3)(C1)C2 (stereo not drawn) [Compound 300, N-{3-[2-(4-chloro-3-fluorophenoxy)acetamido]bicyclo[1.1.1]pentan-1-yl}-6-fluoro-4-hydroxy-3,4-dihydro-2H-1-benzopyran-2-carboxamide] | < 10 |
| O=C(COc1ccc(Cl)cn1)NC12CC(NC(=O)[C@H]3CC(=O)c4cc(Cl)ccc4O3)(C1)C2 [Compound 331, (2R)-6-chloro-N-(3-{2-[(5-chloropyridin-2-yl)oxy]acetamido}bicyclo[1.1.1]pentan-1-yl)-4-oxo-3,4-dihydro-2H-1-benzopyran-2-carboxamide] | 50 to 250 |
| O=C(COc1ccc(F)c(F)c1)NC12CC(NC(=O)[C@@H]3C[C@H](O)c4cc(F)c(F)cc4O3)(C1)C2 [Compound 273, (2S,4S)—N-{3-[2-(3,4-difluorophenoxy)acetamido]bicyclo[1.1.1]pentan-1-yl}-6,7-difluoro-4-hydroxy-3,4-dihydro-2H-1-benzopyran-2-carboxamide] | 10 to 50 |
| O=C(COc1ccc(Cl)c(F)c1)NC12CC(NC(=O)[C@H]3C[C@H](O)c4cc(Cl)ccc4O3)(C1)C2 [Compound 197, (2R,4S)-6-chloro-N-{3-[2-(4-chloro-3-fluorophenoxy)acetamido]bicyclo[1.1.1]pentan-1-yl}-4-hydroxy-3,4-dihydro-2H-1-benzopyran-2-carboxamide] | < 10 |
| O=C(COc1ccc(Cl)cn1)NC12CC(NC(=O)[C@H]3C[C@@H](O)c4cc(Cl)ccc4O3)(C1)C2 [Compound 233, (2R,4R)-6-chloro-N-(3-{2-[(5-chloropyridin-2-yl)oxy]acetamido}bicyclo[1.1.1]pentan-1-yl)-4-hydroxy-3,4-dihydro-2H-1-benzopyran-2-carboxamide] | 10 to 50 |
| CO[C@@H]1C[C@H](C(=O)NC23CC(NC(=O)COc4ccc(Cl)c(F)c4)(C2)C3)Oc2ccc(Cl)cc21 (racemic) [Compound 340, rac-(2R,4R)-6-chloro-N-{3-[2-(4-chloro-3-fluorophenoxy)acetamido]bicyclo[1.1.1]pentan-1-yl}-4-methoxy-3,4-dihydro-2H-1-benzopyran-2-carboxamide] | < 10 |
| Cc1cc2c(cc1F)[C@H](O)C[C@H](C(=O)NC13CC(NC(=O)COc4ccc(Cl)c(F)c4)(C1)C3)O2 (single isomer, unassigned) [Compound 241] | < 10 |
| Cc1cc(OCC(=O)NC23CC(NC(=O)[C@@H]4C[C@H](O)c5cc(Cl)ccc5O4)(C2)C3)ccc1F [Compound 360, (2S,4S)-6-chloro-N-{3-[2-(4-fluoro-3-methylphenoxy)acetamido]bicyclo[1.1.1]pentan-1-yl}-4-hydroxy-3,4-dihydro-2H-1-benzopyran-2-carboxamide] | 10 to 50 |
| O=C(COc1ccc(Cl)c(F)c1)NC12CC(NC(=O)[C@@H]3C[C@@H](N[C@H]4C[C@@H](O)C4)c4cc(Cl)ccc4O3)(C1)C2 [Compound 316, (2S,4R)-6-chloro-N-{3-[2-(4-chloro-3-fluorophenoxy)acetamido]bicyclo[1.1.1]pentan-1-yl}-4-{[(1s,3S)-3-hydroxycyclobutyl]amino}-3,4-dihydro-2H-1-benzopyran-2-carboxamide] | 50 to 250 |
